Holding throughout (type): functional, cell-based
One test concerns HepG2. The experiment in a line: Cytotoxicity against human HepG2 cells after 3 days by MTT assay. The conditions noted are these: HepG2, 72 h. A general note: Tetrazolium dyes change colour on reduction, which living cells bring about.
For the next test, the system named is SK-OV-3. Kind of test: Cytotoxicity against human SKOV3 cells after 3 days by MTT assay. The conditions noted are these: SK-OV-3, 72 h.
The subject of the next test is NCI-H460. Kind of test: Cytotoxicity against human NCI-H460 cells after 3 days by MTT assay. The conditions noted are these: NCI-H460, 72 h.
The test system of the next test is A549. Kind of test: Cytotoxicity against human A549 cells after 3 days by MTT assay. The conditions noted are these: A549, 72 h.

The term IC50 denotes the concentration that gives 50% inhibition. Read a low IC50 as greater potency in that assay. `CCOP(=O)(OCC)C(NC(=S)NC(=O)[C@]1(C)CCC[C@]2(C)c3ccc(C(C)C)cc3C(=O)C[C@@H]12)c1ccccc1Cl` (stereo partly drawn): the IC50 in the test on HepG2 is 39.9 µM; in the test on SK-OV-3, 27.9 µM; in the test with NCI-H460, 36.1 µM; in the test with A549 it was 22.5 µM.

On to `CCOP(=O)(OCC)C(NC(=S)NC(=O)[C@]1(C)CCC[C@]2(C)c3ccc(C(C)C)cc3C(=O)C[C@@H]12)c1cccc(C)c1` (stereo partly drawn), for which the IC50 is > 50 µM in the test with HepG2, > 50 µM in the test on SK-OV-3, 42.7 µM with NCI-H460 and 37.1 µM in the test with A549.

With `CCOP(=O)(OCC)C(NC(=S)NC(=O)[C@]1(C)CCC[C@]2(C)c3ccc(C(C)C)cc3C(=O)C[C@@H]12)c1ccccc1F` (stereo partly drawn), the IC50 in the test with HepG2 is 49.3 µM; in the test on SK-OV-3, 45.1 µM; in the test with NCI-H460, 36.4 µM; in the test with A549, > 50 µM.

Regarding `CCOP(=O)(OCC)C(NC(=S)NC(=O)[C@]1(C)CCC[C@]2(C)c3ccc(C(C)C)cc3/C(=N\O)C[C@@H]12)c1ccc2ccccc2c1` (stereo partly drawn), the IC50 in the test on HepG2 is 20.9 µM; with SK-OV-3, 40.6 µM; in the test on NCI-H460, 26.8 µM; in the test on A549, > 50 µM.

For the compound `CCOP(=O)(OCC)C(NC(=S)NC(=O)[C@]1(C)CCC[C@]2(C)c3ccc(C(C)C)cc3/C(=N\O)C[C@@H]12)c1cccc(Br)c1` (stereo partly drawn), the IC50 with HepG2 was 42.8 µM; in the test with SK-OV-3, 37.7 µM; with NCI-H460, 30.2 µM; with A549 it was 34.7 µM.

Turning to `CCOP(=O)(OCC)C(NC(=S)NC(=O)[C@]1(C)CCC[C@]2(C)c3ccc(C(C)C)cc3C(=O)C[C@@H]12)c1cccc(Cl)c1` (stereo partly drawn), the IC50 with HepG2 was > 50 µM; with SK-OV-3, > 50 µM; in the test on NCI-H460, > 50 µM; with A549 it was 44.1 µM.

With `CCOP(=O)(OCC)C(NC(=S)NC(=O)[C@]1(C)CCC[C@]2(C)c3ccc(C(C)C)cc3C(=O)C[C@@H]12)c1ccc(Cl)cc1` (stereo partly drawn), the concentration for half-maximal inhibition (IC50) with HepG2 was 39.5 µM; with SK-OV-3, 31.4 µM; with NCI-H460 it was 41.2 µM; in the test on A549, 30.3 µM.

Consider `CCOP(=O)(OCC)C(NC(=S)NC(=O)[C@]1(C)CCC[C@]2(C)c3ccc(C(C)C)cc3C(=O)C[C@@H]12)c1ccc(F)cc1` (stereo partly drawn), for which the IC50 was found to be 45.4 µM in the test with HepG2, 30.2 µM in the test with SK-OV-3, 22.4 µM in the test with NCI-H460 and 17.4 µM in the test on A549.

As to `CCOP(=O)(OCC)C(NC(=S)NC(=O)[C@]1(C)CCC[C@]2(C)c3ccc(C(C)C)cc3C(=O)C[C@@H]12)c1cccc(Br)c1` (stereo partly drawn), the IC50 is > 50 µM with HepG2, 49.1 µM with SK-OV-3, 41.5 µM in the test with NCI-H460 and 42.5 µM in the test on A549.

With `CCOP(=O)(OCC)C(NC(=S)NC(=O)[C@]1(C)CCC[C@]2(C)c3ccc(C(C)C)cc3C(=O)C[C@@H]12)c1ccccc1` (stereo partly drawn), the IC50 was 46.8 µM in the test with HepG2, 42.5 µM in the test with SK-OV-3, 21.1 µM with NCI-H460 and 21.6 µM in the test with A549.

Consider `CCOP(=O)(OCC)C(NC(=S)NC(=O)[C@]1(C)CCC[C@]2(C)c3ccc(C(C)C)cc3C(=O)C[C@@H]12)c1ccccc1OC` (stereo partly drawn), for which the IC50 is > 50 µM in the test with HepG2, 23.6 µM with SK-OV-3, 29.5 µM in the test with NCI-H460 and 19.9 µM in the test with A549.

Consider `O=c1[nH]cc(F)c(=O)[nH]1` [FLUOROURACIL], for which the IC50 with HepG2 was 30 µM; in the test on SK-OV-3, 24.4 µM; with NCI-H460, 44 µM; in the test on A549, 34.3 µM.

As for `CCOP(=O)(OCC)C(NC(=S)NC(=O)[C@]1(C)CCC[C@]2(C)c3ccc(C(C)C)cc3/C(=N\O)C[C@@H]12)c1cccc(F)c1` (stereo partly drawn), the IC50 turned out to be 17.5 µM in the test on HepG2, 25.2 µM in the test on SK-OV-3, 13.3 µM in the test on NCI-H460 and 28.9 µM in the test on A549.

Take `CCOP(=O)(OCC)C(NC(=S)NC(=O)[C@]1(C)CCC[C@]2(C)c3ccc(C(C)C)cc3/C(=N\O)C[C@@H]12)c1ccccc1` (stereo partly drawn): the IC50 in the test with HepG2 is 27.2 µM; with SK-OV-3 it was 22.1 µM; in the test on NCI-H460, 36.7 µM; with A549 it was 27 µM.

Turning to `CCOP(=O)(OCC)C(NC(=S)NC(=O)[C@]1(C)CCC[C@]2(C)c3ccc(C(C)C)cc3/C(=N\O)C[C@@H]12)c1ccc(Br)cc1` (stereo partly drawn), the IC50 was found to be 26.9 µM in the test with HepG2, 12.7 µM with SK-OV-3, 22.6 µM in the test with NCI-H460 and 19 µM in the test with A549.

Regarding `CC(C)c1ccc2c(c1)CC[C@H]1[C@](C)(C(=O)O)CCC[C@]21C` [DEHYDROABIETIC ACID], the IC50 in the test with HepG2 was found to be 85 µM; in the test on SK-OV-3, 84 µM; in the test on NCI-H460 it was 84.5 µM; in the test on A549 it was 79.5 µM.

Consider `CCOP(=O)(OCC)C(NC(=S)NC(=O)[C@]1(C)CCC[C@]2(C)c3ccc(C(C)C)cc3/C(=N\O)C[C@@H]12)c1ccc(OC)cc1` (stereo partly drawn), for which the IC50 amounted to 17 µM in the test with HepG2, 30.8 µM in the test with SK-OV-3, 38.5 µM in the test with NCI-H460 and 23.6 µM in the test with A549.

As to `CCOP(=O)(OCC)C(NC(=S)NC(=O)[C@]1(C)CCC[C@]2(C)c3ccc(C(C)C)cc3C(=O)C[C@@H]12)c1cccc2ccccc12` (stereo partly drawn), the IC50 with HepG2 is > 50 µM; with SK-OV-3, 27.3 µM; with NCI-H460 it was > 50 µM; with A549, 32.6 µM.

`CCOP(=O)(OCC)C(NC(=S)NC(=O)[C@]1(C)CCC[C@]2(C)c3ccc(C(C)C)cc3C(=O)C[C@@H]12)c1ccc(C)cc1` (stereo partly drawn): the IC50 in the test with HepG2 turned out to be 15.2 µM; with SK-OV-3, 11.8 µM; with NCI-H460, 24.8 µM; in the test with A549, 22.2 µM.

Take `CCOP(=O)(OCC)C(NC(=S)NC(=O)[C@]1(C)CCC[C@]2(C)c3ccc(C(C)C)cc3/C(=N\O)C[C@@H]12)c1cccc2ccccc12` (stereo partly drawn): the IC50 stood at 27.9 µM in the test with HepG2, 40.1 µM in the test with SK-OV-3, 37.1 µM in the test on NCI-H460 and 28 µM with A549.

In the case of `CCOP(=O)(OCC)C(NC(=S)NC(=O)[C@]1(C)CCC[C@]2(C)c3ccc(C(C)C)cc3/C(=N\O)C[C@@H]12)c1ccccc1F` (stereo partly drawn), the IC50 with HepG2 was found to be 9.73 µM; in the test on SK-OV-3, 19.9 µM; with NCI-H460 it was 19.3 µM; in the test on A549, 9.16 µM.

`CCOP(=O)(OCC)C(NC(=S)NC(=O)[C@]1(C)CCC[C@]2(C)c3ccc(C(C)C)cc3/C(=N\O)C[C@@H]12)c1cccc(Cl)c1` (stereo partly drawn): the IC50 in the test with HepG2 was found to be 13.2 µM; in the test with SK-OV-3, 12.3 µM; in the test on NCI-H460, 28.4 µM; with A549, 19 µM.

Turning to `CCOP(=O)(OCC)C(NC(=S)NC(=O)[C@]1(C)CCC[C@]2(C)c3ccc(C(C)C)cc3/C(=N\O)C[C@@H]12)c1ccccc1OC` (stereo partly drawn), the IC50 with HepG2 came to 8.62 µM; in the test with SK-OV-3 it was 17.9 µM; in the test with NCI-H460, 18.6 µM; in the test on A549, 27.1 µM.

As to `CCOP(=O)(OCC)C(NC(=S)NC(=O)[C@]1(C)CCC[C@]2(C)c3ccc(C(C)C)cc3C(=O)C[C@@H]12)c1ccc2ccccc2c1` (stereo partly drawn), the IC50 came out at 25.2 µM in the test with HepG2, 24.6 µM in the test with SK-OV-3, 19.8 µM with NCI-H460 and 23.2 µM in the test on A549.

Consider `CCOP(=O)(OCC)C(NC(=S)NC(=O)[C@]1(C)CCC[C@]2(C)c3ccc(C(C)C)cc3/C(=N\O)C[C@@H]12)c1cccc(C)c1` (stereo partly drawn), for which the IC50 with HepG2 worked out at 12.5 µM; in the test with SK-OV-3 it was 28.6 µM; in the test with NCI-H460, 37.9 µM; in the test with A549, 12.9 µM.

For `CCOP(=O)(OCC)C(NC(=S)NC(=O)[C@]1(C)CCC[C@]2(C)c3ccc(C(C)C)cc3/C(=N\O)C[C@@H]12)c1ccc(C)cc1` (stereo partly drawn), the IC50 with HepG2 was determined as 10.9 µM; with SK-OV-3, 8.95 µM; in the test on NCI-H460, 22.4 µM; with A549, 17.9 µM.

As for `CCOP(=O)(OCC)C(NC(=S)NC(=O)[C@]1(C)CCC[C@]2(C)c3ccc(C(C)C)cc3/C(=N\O)C[C@@H]12)c1ccc(Cl)cc1` (stereo partly drawn), the IC50 was determined as 21.4 µM in the test with HepG2, 16.6 µM in the test with SK-OV-3, 23.8 µM in the test on NCI-H460 and 9.66 µM in the test on A549.

On to `CCOP(=O)(OCC)C(NC(=S)NC(=O)[C@]1(C)CCC[C@]2(C)c3ccc(C(C)C)cc3C(=O)C[C@@H]12)c1cccc(OC)c1` (stereo partly drawn), for which the IC50 in the test with HepG2 stood at 15.8 µM; in the test with SK-OV-3 it was 8.41 µM; in the test on NCI-H460, 11.5 µM; in the test with A549, 14.1 µM.

In the case of `CCOP(=O)(OCC)C(NC(=S)NC(=O)[C@]1(C)CCC[C@]2(C)c3ccc(C(C)C)cc3C(=O)C[C@@H]12)c1cccc(F)c1` (stereo partly drawn), the IC50 in the test on HepG2 was 37.1 µM; with SK-OV-3 it was > 50 µM; in the test with NCI-H460, 39.8 µM; in the test with A549 it was 33 µM.

Regarding `CCOP(=O)(OCC)C(NC(=S)NC(=O)[C@]1(C)CCC[C@]2(C)c3ccc(C(C)C)cc3/C(=N\O)C[C@@H]12)c1ccccc1Cl` (stereo partly drawn), the IC50 is > 50 µM in the test with HepG2, 40.2 µM with SK-OV-3, 29.1 µM in the test with NCI-H460 and 32.8 µM in the test on A549.

In the case of `CCOP(=O)(OCC)C(NC(=S)NC(=O)[C@]1(C)CCC[C@]2(C)c3ccc(C(C)C)cc3C(=O)C[C@@H]12)c1ccc(OC)cc1` (stereo partly drawn), the IC50 with HepG2 is > 50 µM; with SK-OV-3, 49.9 µM; in the test on NCI-H460 it was 24.5 µM; with A549 it was 26.1 µM.

On to `CCOP(=O)(OCC)C(NC(=S)NC(=O)[C@]1(C)CCC[C@]2(C)c3ccc(C(C)C)cc3C(=O)C[C@@H]12)c1ccc(Br)cc1` (stereo partly drawn), for which the IC50 in the test on HepG2 is > 50 µM; in the test with SK-OV-3 it was 36.9 µM; with NCI-H460 it was 27.9 µM; in the test with A549, 49.6 µM.
